Results on 2 molecules are retold here after patent publication US20170152258A9, “Substituted Pyridopyrazines as Syk Inhibitors” (HUTCHISON MEDIPHARMA LIMITED, priority 2012, published 2017).

One assay deals with T1, Flt-3 (Homo sapiens, UniProt P36888).
T1 sequence (P36888 27-993): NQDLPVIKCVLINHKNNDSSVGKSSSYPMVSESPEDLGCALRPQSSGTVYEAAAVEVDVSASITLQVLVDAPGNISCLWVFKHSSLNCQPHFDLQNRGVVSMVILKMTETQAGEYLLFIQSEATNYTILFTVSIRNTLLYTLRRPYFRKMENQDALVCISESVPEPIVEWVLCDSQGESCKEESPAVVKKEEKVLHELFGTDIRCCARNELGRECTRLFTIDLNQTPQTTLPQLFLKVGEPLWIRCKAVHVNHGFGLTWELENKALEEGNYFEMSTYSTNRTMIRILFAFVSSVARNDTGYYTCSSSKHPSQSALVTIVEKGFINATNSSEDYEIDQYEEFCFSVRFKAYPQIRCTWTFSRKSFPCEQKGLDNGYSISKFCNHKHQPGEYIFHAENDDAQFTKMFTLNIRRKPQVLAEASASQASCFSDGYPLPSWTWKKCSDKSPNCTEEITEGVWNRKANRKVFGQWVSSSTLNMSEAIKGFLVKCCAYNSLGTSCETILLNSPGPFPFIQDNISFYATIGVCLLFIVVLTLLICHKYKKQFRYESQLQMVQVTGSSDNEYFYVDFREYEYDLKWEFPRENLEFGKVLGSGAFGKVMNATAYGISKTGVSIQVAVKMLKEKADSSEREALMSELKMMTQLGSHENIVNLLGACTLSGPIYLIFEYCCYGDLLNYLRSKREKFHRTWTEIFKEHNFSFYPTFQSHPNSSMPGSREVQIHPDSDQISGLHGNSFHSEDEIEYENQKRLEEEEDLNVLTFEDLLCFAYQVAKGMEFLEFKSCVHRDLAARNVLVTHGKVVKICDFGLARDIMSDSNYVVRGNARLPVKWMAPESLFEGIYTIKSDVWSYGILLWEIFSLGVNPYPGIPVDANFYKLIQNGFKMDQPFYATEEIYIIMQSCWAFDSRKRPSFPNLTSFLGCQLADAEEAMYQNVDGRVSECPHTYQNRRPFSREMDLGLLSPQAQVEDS
Briefly: Z-Lyte Kinase Assay of Flt-3. The format is biochemical. The conditions noted are these: Flt3 kinase. As to the method: Z-Lyte Kinase Assay of Flt-3:
Serially dilute the test compounds to 4 folds of the concentrations desired, keeping the DMSO concentration at 8%. The final concentrations were 3, 1, 0.33, 0.11, 0.037, 0.012, 0.004, 0.0014 μM, and the final concentration of DMSO was 2%.
Prepare Kinase/Peptide Mixture by diluting the kinase to 0.12 μg/mL and the Z-LYTE™ Tyr 2 peptide to 4 μM in 1.33× Kinase Buffer. Mix gently by pipetting.
Prepare ATP Solution by diluting the 10 mM of ATP in 1.33× Kinase Buffer to 1.88 mM.
• a. Add 2.5 μL of 4× test Cpds to each well except C1, C2, C3 wells • Add 2.5 μL of 8% DMSO to C1, C2, C3 wells • b. Put the 384-plate on ice • c. Add 5 μL of P/K mixture to each test Cpd wells and C1, C2 wells • d. Add 5 μL of PP Solution to C3 well • e. Add 2.5 μL of 1.33× kinase buffer to C1 and C3 wells • f. Add 2.5 μL of 4×ATP Solution to each test Cpd wells and C2 well, respectively. • Shake the plate for 30 Sec and centrifuge (1500 rpm, 1 min) • g. Seal the plate to protect from the light and incubate the plate for 1 hour at RT (25-30° C.).
• a. Add 5 μL of the Development solution to all wells • b. Shake the plate for 30 Sec and centrifuge (1500 rpm, 1 min) • c. Seal the plate to protect from the light and incubate the plate for 1 hour at RT (25-30° C.).
• a. […]
IC50 Value: determined with add-in software for Microsoft Excel, XLfit™ (version 2.0) from ID Business Solutions (Guildford, UK)

For another assay, the system named is RBL-2H3 cells. Briefly: IgE-induced Beta-hexosaminidase secretion in RBL-2H3 cells. The format is cell-based. The conditions noted are these: Rattus norvegicus, RBL-2H3, IgE-induced Beta-hexosaminidase secretion, DNP-BSA stimulation. The procedure, abridged: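 RBL-2H3 cells sensitized overnight with 0.5 ug/ml SPE-7 IgE, washed, preincubated with compound 20 min at 37° C, then stimulated with DNP-BSA (150 ng/mL stock) for 45 min. Released β-hexosaminidase measured on supernatant with 1 mM 4-nitrophenyl N-acetyl-β-D-glucosaminide, pH 4.5, 1.5 hr at 37° C; absorbance 405 nm after carbonate quench.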

The term IC50 denotes the concentration that inhibits the measured activity by half. Consider `CC(C)(O)c1ccc(-c2cc3nccnc3c(OC[C@@H]3CN(S(C)(=O)=O)CCO3)n2)cc1` [Compound 219], for which the half-inhibitory concentration (IC50) against Flt-3 stood at 880 nM; in the assay on RBL-2H3 cells, 37 nM.
Take `CC(=O)N1CCO[C@H](COc2nc(-c3ccc4c(c3)CCOC4(C)C)cc3nccnc23)C1` [Compound 300]: the IC50 was found to be 885 nM on Flt-3 and 52 nM in the assay on RBL-2H3 cells.
